Source: PubChem BioAssay (NCI)
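GI50 = concentration required for 50% inhibition of growth. The concentration for full growth arrest is given as TGI.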

How the values were obtained:
Experiment in all cases: DTP human tumour cell line panel, 384-well format
786-0 renal = system: 786-0 renal
A498 renal = system: A498 renal
A549 NSCLC = system: A549 NSCLC
ACHN renal = system: ACHN renal
BT-549 breast = system: BT-549 breast
CAKI-1 renal = system: CAKI-1 renal
CCRF-CEM leukemia = system: CCRF-CEM leukemia
COLO 205 colon = system: COLO 205 colon
DU-145 prostate = system: DU-145 prostate
EKVX NSCLC = system: EKVX NSCLC
HCC-2998 colon = system: HCC-2998 colon
HCT-116 colon = system: HCT-116 colon
HCT-15 colon = system: HCT-15 colon
HOP-62 NSCLC = system: HOP-62 NSCLC
HOP-92 NSCLC = system: HOP-92 NSCLC
HS 578T breast = system: HS 578T breast
HT29 colon = system: HT29 colon
IGROV1 ovarian = system: IGROV1 ovarian
K-562 leukemia = system: K-562 leukemia
KM12 colon = system: KM12 colon
LOX IMVI melanoma = system: LOX IMVI melanoma
M14 melanoma = system: M14 melanoma
MALME-3M melanoma = system: MALME-3M melanoma
MCF7 breast = system: MCF7 breast
MDA-MB-231 breast = system: MDA-MB-231 breast
MDA-MB-435 melanoma = system: MDA-MB-435 melanoma
MDA-MB-468 breast = system: MDA-MB-468 breast
MOLT-4 leukemia = system: MOLT-4 leukemia
NCI-H226 lung = system: NCI-H226 lung
NCI-H23 lung = system: NCI-H23 lung
NCI-H322M lung = system: NCI-H322M lung
NCI-H460 NSCLC = system: NCI-H460 NSCLC
NCI-H522 lung = system: NCI-H522 lung
NCI/ADR-RES ovarian = system: NCI/ADR-RES ovarian
OVCAR-3 ovarian = system: OVCAR-3 ovarian
OVCAR-4 ovarian = system: OVCAR-4 ovarian
OVCAR-5 ovarian = system: OVCAR-5 ovarian
OVCAR-8 ovarian = system: OVCAR-8 ovarian
PC-3 prostate = system: PC-3 prostate
RPMI-8226 leukemia = system: RPMI-8226 leukemia
RXF 393 renal = system: RXF 393 renal
SF-268 CNS = system: SF-268 CNS
SF-295 CNS = system: SF-295 CNS
SF-539 CNS = system: SF-539 CNS
SK-MEL-28 melanoma = system: SK-MEL-28 melanoma
SK-MEL-5 melanoma = system: SK-MEL-5 melanoma
SK-OV-3 ovarian = system: SK-OV-3 ovarian
SN12C renal = system: SN12C renal
SNB-19 CNS = system: SNB-19 CNS
SNB-75 CNS = system: SNB-75 CNS
SR leukemia = system: SR leukemia
SW-620 colon = system: SW-620 colon
T-47D breast = system: T-47D breast
TK-10 renal = system: TK-10 renal
U251 glioblastoma = system: U251 glioblastoma
UACC-257 melanoma = system: UACC-257 melanoma
UO-31 renal = system: UO-31 renal

COc1cccc2c1ccc1nc3cccc(C(=O)N[C@H](C)CN(C)C)c3nc12
GI50 ([…]-0 renal): 57.5 nM | TGI (786-0 renal): 861 nM | GI50 (A498 renal): 51.1 nM | TGI (A498 renal): 384 nM | GI50 (A549 NSCLC): 42.9 nM | TGI (A549 NSCLC): 904 nM | GI50 (ACHN renal): 28.3 nM | TGI (ACHN renal): 243 nM | GI50 (BT-549 breast): 125 nM | TGI (BT-549 breast): 268 nM | GI50 (CAKI-1 renal): 37.3 nM | TGI (CAKI-1 renal): 2720 nM | GI50 (CCRF-CEM leukemia): 42.3 nM | TGI (CCRF-CEM leukemia): 160 nM | GI50 (COLO 205 colon): 12.8 nM | TGI (COLO 205 colon): 99.9 nM | GI50 (DU-145 prostate): 69.2 nM | TGI (DU-145 prostate): 524 nM | GI50 (EKVX NSCLC): 156 nM | TGI (EKVX NSCLC): 380 nM | GI50 (HCC-2998 colon): 41.4 nM | TGI (HCC-2998 colon): 162 nM | GI50 (HCT-116 colon): 35.3 nM | TGI (HCT-116 colon): 1080 nM | GI50 (HCT-15 colon): 41.3 nM | TGI (HCT-15 colon): 187 nM | GI50 (HOP-62 NSCLC): 56 nM | TGI (HOP-62 NSCLC): 231 nM | GI50 (HOP-92 NSCLC): 92 nM | TGI (HOP-92 NSCLC): 1620 nM | GI50 (HS 578T breast): 141 nM | TGI (HS 578T breast): 289 nM | GI50 (HT29 colon): 103 nM | TGI (HT29 colon): 11800 nM | GI50 (IGROV1 ovarian): 61.9 nM | TGI (IGROV1 ovarian): 609 nM | GI50 (K-562 leukemia): 45.4 nM | TGI (K-562 leukemia): 156 nM | GI50 (KM12 colon): 84.7 nM | TGI (KM12 colon): 881 nM | GI50 (LOX IMVI melanoma): 45.9 nM | TGI (LOX IMVI melanoma): 155 nM | GI50 (M14 melanoma): 101 nM | TGI (M14 melanoma): 225 nM | GI50 (MALME-3M melanoma): 28.3 nM | TGI (MALME-3M melanoma): 68 nM | GI50 (MCF7 breast): 46.7 nM | TGI (MCF7 breast): 1100 nM | GI50 (MDA-MB-231 breast): 110 nM | TGI (MDA-MB-231 breast): 393 nM | GI50 (MDA-MB-435 melanoma): 106 nM | TGI (MDA-MB-435 melanoma): 229 nM | GI50 (MDA-MB-468 breast): 23.8 nM | TGI (MDA-MB-468 breast): 63.9 nM | GI50 (MOLT-4 leukemia): 15.5 nM | TGI (MOLT-4 leukemia): 29.1 nM | GI50 (NCI-H226 lung): 73.4 nM | TGI (NCI-H226 lung): 340 nM | GI50 (NCI-H23 lung): 91.5 nM | TGI (NCI-H23 lung): 216 nM | GI50 (NCI-H322M lung): 115 nM | TGI (NCI-H322M lung): 361 nM | GI50 (NCI-H460 NSCLC): 34.4 nM | TGI (NCI-H460 NSCLC): 112 nM | GI50 (NCI-H522 lung): 102 nM | TGI (NCI-H522 lung): 278 nM | GI50 (NCI/ADR-RES ovarian): 55.2 nM | TGI (NCI/ADR-RES ovarian): 215 nM | GI50 (OVCAR-3 ovarian): 72.9 nM | TGI (OVCAR-3 ovarian): 292 nM | GI50 (OVCAR-4 ovarian): 130 nM | TGI (OVCAR-4 ovarian): 388 nM | GI50 (OVCAR-5 ovarian): 127 nM | TGI (OVCAR-5 ovarian): 12200 nM | GI50 (OVCAR-8 ovarian): 96.8 nM | TGI (OVCAR-8 ovarian): 273 nM | GI50 (PC-3 prostate): 142 nM | TGI (PC-3 prostate): 603 nM | GI50 (RPMI-8226 leukemia): 27.1 nM | TGI (RPMI-8226 leukemia): 74.6 nM | GI50 (RXF 393 renal): 111 nM | TGI (RXF 393 renal): 242 nM | GI50 (SF-268 CNS): 63.5 nM | TGI (SF-268 CNS): 228 nM | GI50 (SF-295 CNS): 37.6 nM | TGI (SF-295 CNS): 221 nM | GI50 (SF-539 CNS): 52.8 nM | TGI (SF-539 CNS): 174 nM | GI50 (SK-MEL-28 melanoma): 123 nM | TGI (SK-MEL-28 melanoma): 291 nM | GI50 (SK-MEL-5 melanoma): 35.3 nM | TGI (SK-MEL-5 melanoma): 90.4 nM | GI50 (SK-OV-3 ovarian): 85 nM | TGI (SK-OV-3 ovarian): 430 nM | GI50 (SN12C renal): 77.4 nM | TGI (SN12C renal): 249 nM | GI50 (SNB-19 CNS): 75.2 nM | TGI (SNB-19 CNS): 1050 nM | GI50 (SNB-75 CNS): 111 nM | TGI (SNB-75 CNS): 238 nM | TGI (SR leukemia): 20.4 nM | GI50 (SW-620 colon): 29.9 nM | TGI (SW-620 colon): 290 nM | GI50 (T-47D breast): 117 nM | TGI (T-47D breast): 315 nM | GI50 (TK-10 renal): 90.5 nM | TGI (TK-10 renal): 554 nM | GI50 (U251 glioblastoma): 57.8 nM | TGI (U251 glioblastoma): 311 nM | GI50 (UACC-257 melanoma): 104 nM | TGI (UACC-257 melanoma): 230 nM | GI50 (UO-31 renal): 56.1 nM | TGI (UO-31 renal): 398 nM
